Earlier results as cited in patent US20250381160A1, “Method and Apparatus for Providing Transdermal Delivery of a Carbidopa/Levodopa-Based Lotion for the Treatment of Parkinson's Disease” (Through The Skin LLC, priority 2024, published 2025).

Assays:
Parkinson's Disease = conditions: carbidopa given with levodopa
[1] = not given; remark: listed apart in the source
[2] = with HA of 150,000-750,000 Daltons, 1-3% of the solution, versus formulations without hyaluronic acid

In the case of `CC(Cc1ccc(O)c(O)c1)(NN)C(=O)O` (single isomer, unassigned; (-)) [Carbidopa, (-)-L-α-hydrazino-α-methyl-β-(3,4-dihydroxybenzene) propanoic acid monohydrate], the solubility in water is listed as “slightly soluble in water” and the “reduction of the amount of levodopa required to produce a given response” value (Parkinson's Disease) is listed as “about 75%”.

In the case of `NC(Cc1ccc(O)c(O)c1)C(=O)O` (single isomer, unassigned; (-)) [Levodopa, (-)-L-α-amino-β-(3,4-dihydroxybenzene) propanoic acid], the solubility in water is listed as “slightly soluble in water”, the half-life of levodopa ([1]; carbidopa and levodopa administered together) is listed as “about 1.5 hours” and the “plasma half-life of levodopa” value ([1]; without carbidopa) is listed as “about 50 minutes”.

For `O=C(O)Cc1ccccc1Nc1c(Cl)cccc1Cl` [diclofenac sodium], the “increase of the amount that penetrated the skin” value [2] is listed as 3 times.
